Laboratory results: US8629135B2, “Pharmaceutical compositions comprising RET inhibitors and methods for the treatment of cancer” (Queen's University at Kingston, priority 2008, dated 2014)
Values joined by “and” are separate entries in the source; they are usually repeats but may differ in a detail not shown here. Equal entries are not always repeated. “Also recorded” adds a separate entry of the source. Structures can show the parent of a compound that is named as a salt. Where two headings read alike, the source gives them in different places.

Key:
RET [1] = target: T1, RET (Homo sapiens (Human), UniProt P07949); assay: Protein based RET kinase assay with purified recombinant GST-RET; assay type: biochemical
Target sequence in this assay (P07949 29-1114): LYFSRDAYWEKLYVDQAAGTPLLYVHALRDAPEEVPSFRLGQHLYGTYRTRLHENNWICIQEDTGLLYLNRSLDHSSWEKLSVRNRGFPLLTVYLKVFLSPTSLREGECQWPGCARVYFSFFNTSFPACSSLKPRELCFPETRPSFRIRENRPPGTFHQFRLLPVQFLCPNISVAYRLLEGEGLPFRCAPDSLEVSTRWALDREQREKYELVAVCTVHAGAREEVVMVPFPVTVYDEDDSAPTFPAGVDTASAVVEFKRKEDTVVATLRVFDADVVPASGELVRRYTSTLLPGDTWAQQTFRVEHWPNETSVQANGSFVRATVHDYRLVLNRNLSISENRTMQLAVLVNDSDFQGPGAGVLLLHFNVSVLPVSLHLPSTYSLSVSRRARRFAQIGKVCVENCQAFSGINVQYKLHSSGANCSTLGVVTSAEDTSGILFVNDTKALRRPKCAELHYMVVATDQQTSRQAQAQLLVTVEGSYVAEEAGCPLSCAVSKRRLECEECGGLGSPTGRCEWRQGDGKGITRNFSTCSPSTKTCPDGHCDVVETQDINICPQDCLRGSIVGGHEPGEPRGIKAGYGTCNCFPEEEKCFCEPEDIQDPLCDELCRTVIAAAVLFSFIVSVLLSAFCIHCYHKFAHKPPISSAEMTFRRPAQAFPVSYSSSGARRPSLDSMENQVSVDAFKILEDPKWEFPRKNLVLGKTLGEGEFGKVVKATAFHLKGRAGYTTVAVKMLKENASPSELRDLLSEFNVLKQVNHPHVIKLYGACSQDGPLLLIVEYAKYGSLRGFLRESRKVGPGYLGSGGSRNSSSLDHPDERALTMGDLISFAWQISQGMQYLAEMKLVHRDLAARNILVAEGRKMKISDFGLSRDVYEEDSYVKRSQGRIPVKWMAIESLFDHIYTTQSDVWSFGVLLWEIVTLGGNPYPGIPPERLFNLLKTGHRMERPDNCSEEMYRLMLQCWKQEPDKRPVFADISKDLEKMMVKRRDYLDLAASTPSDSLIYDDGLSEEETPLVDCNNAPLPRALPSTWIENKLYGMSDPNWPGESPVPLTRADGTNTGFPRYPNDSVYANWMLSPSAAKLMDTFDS

RET [2] = target: T1, RET; assay: RET autophosphorylation (pY905 Western blot) in HEK293 cells stably expressing RET; assay type: cell-based
Target sequence in this assay (P07949 29-1114 limits assumed): as the sequence (P07949 29-1114) above

MiaPaca-2 tumours = assay: Xenograft study, subcutaneous MiaPaca-2 tumours; assay type: in vivo; conditions: MiaPaca-2 xenograft, nude mice, intraperitoneal; SW-01 50 mg/kg, gemcitabine 120 mg/kg
RET [3] = target: T1, RET; parameters: key to the marks not given beside the values; conditions: RET phosphorylation levels
Target sequence in this assay (P07949 29-1114): as above

[4] = test system: RET-mediated activation of ERK; conditions: increasing concentrations, HEK293 cells
ERK or AKT pathways = conditions: parental HEK 293 cells not expressing RET, increasing concentration
[5] = test system: HEK293 cells stably expressing RET
[6] = test system: RET-expressing HEK293 cells
TT cells [7] = test system: TT cells
MiaPaca-2 cells = conditions: presence of GDNF
MCF7 cells = conditions: presence of GDNF
[8] = test system: MiaPaca-2 cells expressing RET; conditions: MiaPaca-2, GDNF + SW-01 (5 μM) relative to GDNF alone
BxPc3 tumours = conditions: BxPc3 xenograft, nude mice, 50 mg/kg intraperitoneal every three days
RET V804M mutant = RET V804M mutant (Homo sapiens (Human), UniProt P07949, V804M); conditions: HEK293 cells, 2 h
Chain of RET V804M mutant (P07949 29-1114 V804M): as the sequence (P07949 29-1114) above, with V776M counted along it

RET M918T mutant = RET M918T mutant (Homo sapiens (Human), UniProt P07949, M918T); conditions: HEK293 cells, 2 h
Chain of RET M918T mutant (P07949 29-1114 M918T): as the sequence (P07949 29-1114) above, with M890T counted along it

TT cells [9] = conditions: 24 hours, 10× magnification
[10] = purified protein assay, read-out: IC50
[11] = cell based assay, read-out: EC50
[12] = varying concentrations, 2 hours, HEK293 cells expressing RET

Work on `NCCCC1(CCCN)c2ccccc2-c2ccccc21` [SW-10, 9,9-Bis(3-aminopropyl)-fluorine] yielded an IC50 (RET [1]; [10]) greater than 20 µM and an EC50 (RET [2]; [11]) greater than 20 µM.
`CN(C)CCC=C1c2ccccc2C(C)(C)c2ccccc21` [SW-14, Melitracin] was tested, and the IC50 (RET [1]; [10]) was greater than 20 µM and the EC50 (RET [2]; [11]) was greater than 20 µM.
`NCC1c2ccccc2CCc2ccccc21` [SW-08, 10,11-Dihydro-5H-dibenzo[a,d]cycloheptene-5-methanamine] was tested, and the IC50 (RET [1]; [10]) was 5 µM and the EC50 (RET [2]) was 20 µM.
`CCN(CC)CCCOC(=O)CC1c2ccccc2C=Cc2ccccc21` [SW-12, (5H-Dibenzo[a,d]cyclohepten-5-yl)-acetic acid 3-diethylamino-propyl ester] gave an IC50 (RET [1]; [10]) of 4 µM and an EC50 (RET [2]) greater than 20 µM.
In the case of `CNCCC=C1c2ccccc2CCc2ccccc21` [SW-04, Nortriptyline], the IC50 (RET [1]; [10]) is reported as 1.5 µM, the EC50 (RET [2]; EC50, cell based assay) is reported as 10 µM and the RET autophosphorylation (RET [2]; [12]) is reported as “did not affect RET autophosphorylation”.
`CN(C)CCNC1c2ccccc2-c2ccccc21` [SW-09, N′-Fluoren-9-yl-N,N-dimethyl-ethylenediamine dihydrochloride] showed an IC50 (RET [1]; [10]) greater than 20 µM and an EC50 (RET [2]; [11]) greater than 20 µM.
For `CN(C)CCC=C1c2ccccc2CCc2ccccc21` [SW-05, Amitriptyline], the IC50 (RET [1]; [10]) was 1 µM, the EC50 (RET [2]) was 5 µM and the RET autophosphorylation (RET [2]; [12]) was “inhibited RET activity; also recorded: decreased RET activity”.
`CN(C)CCCC1(O)c2ccccc2C=Cc2ccccc21` [SW-11, 5-(3-Dimethylamino-propyl)-5H-dibenzo[a,d]cyclohepten-5-ol] showed an IC50 (RET [1]; [10]) greater than 10 µM and an EC50 (RET [2]; [11]) greater than 20 µM.
For `CNCCC=C1c2ccccc2C=Cc2ccccc21` [SW-15, Norcyclo- benzaprine (NCBA)], the EC50 (RET [2]) was 1 µM and the RET autophosphorylation (RET [2]; [12]) was “inhibited RET”.
In the case of `CN(CCCN1c2ccccc2CCc2ccccc21)CC(=O)c1ccc(Cl)cc1` [SW-06, Lofepramine], the IC50 (RET [1]; [10]) is reported as greater than 20 µM and the EC50 (RET [2]; [11]) is reported as greater than 20 µM.
For `CN(C)CCOC1c2ccccc2C=Cc2ccccc21` [SW-13, [2-(5H-Dibenzo[a,d]cyclohepten-5-yloxy)-ethyl]-dimethyl-amine], the IC50 (RET [1]; [10]) was 2.5 µM and the EC50 (RET [2]; [11]) was 7 µM.
For `Nc1ccn([C@@H]2O[C@H](CO)[C@@H](O)C2(F)F)c(=O)n1` [gemcitabine, reference compound], the tumour growth (MiaPaca-2 tumours) was “no statistical difference between SW-01 and gemcitabine treatment groups”.
`CNCCC=C1c2ccccc2CCc2ccccc21.Cl` [SW-02, Nortriptyline Hydrochloride] was tested, and the IC50 (RET [1]; purified protein assay, Hydrochloride, read-out: IC50) was 5 µM, the EC50 (RET [2]; EC50, cell based assay) was greater than 20 µM and the RET autophosphorylation (RET [2]; varying concentrations, 2 hours, HEK293 cells expressing RET, Hydrochloride) was “inhibited RET activity; also recorded: decreased RET activity”.
For `C[N+](C)([O-])CCC=C1c2ccccc2CCc2ccccc21.Cl` [SW-03, 3-(10,11-Dihydro-5H-dibenzo[a,d]cyclohepten-5-ylidene)-N,N-dimethyl-1-propanamine N-oxide hydrochloride], the IC50 (RET [1]; [10]) was 10 µM, the EC50 (RET [2]) was greater than 20 µM and the RET autophosphorylation (RET [2]; [12]) was “did not affect RET autophosphorylation”.
With `CN(C)CCC=C1c2ccccc2C=Cc2ccccc21.Cl` [SW-01, Cyclobenzaprine Hydrochloride] the IC50 (RET [1]; kinase assays using purified recombinant RET proteins, Hydrochloride, read-out: IC50 for RET) was 0.3 µM and 0.307 µM, the IC50 (RET [1]; [10]) was 0.3 µM and the RET autokinase activity (RET [1]; purified recombinant RET, pY905 Western blot) was “significantly reduced RET autokinase activity”. The RET autophosphorylation (RET [2]; 10 μM for 2 hours, HEK293 cells expressing activated wildtype RET, Hydrochloride) was “significantly inhibited RET autophosphorylation”, the RET autophosphorylation (RET [2]; 10 μM for 2 hours, HEK293 cells expressing activated wildtype RET, listed as NSC78206, Hydrochloride) was “significant RET inhibition” and the EC50 (RET [2]; EC50, cell based assay) was 1 µM. For the same compound, the “expression levels of RET” value (RET [2]; pan RET antibody, HEK293 cells) was “did not affect expression levels of RET”, the RET autophosphorylation (RET [2]; [12]) was “blocked or dramatically reduced” and the tumour growth (MiaPaca-2 tumours) was “no statistical difference between SW-01 and gemcitabine treatment groups”. For the same compound, the “SW-01 Inhibition (10 μM)” value (RET [3]) was “++”, the “amount of pERK” value [4] was “significantly reduced” and the “effect on ERK or AKT pathways” value (ERK or AKT pathways) was “did not affect ERK or AKT pathways”. The “RET-mediated cell proliferation (MTT)” value [5] was “reduces RET-mediated cell proliferation”, the “RET-mediated colony formation in soft agar” value [6] was “inhibits RET-mediated colony formation” and the apoptosis (TT cells [7]) was “led to apoptosis”. For the same compound, the apoptosis (MiaPaca-2 cells) was “caused dose-dependent apoptosis”, the apoptosis (NCIH69 cells) was “caused apoptosis in NCIH69 cells in a dose-dependent fashion” and the apoptosis (MCF7 cells) was “caused apoptosis in MCF7 cells in a dose-dependent fashion”. For the same compound, the “cell proliferation (MTT)” value (MiaPaca-2) was “caused decreased cell proliferation”, the “cell proliferation (MTT)” value (BxPc3) was “caused decreased cell proliferation” and the “cell migration (wound closure)” value [8] was “cell migration was inhibited”. For the same compound, the tumour growth (BxPc3 tumours) was “caused slowed and reduced tumour growth”, the “RET phosphorylation (pRET/RET)” value (RET V804M mutant) was “inhibited by SW-01 in a concentration dependent fashion” and the “RET phosphorylation (pRET/RET)” value (RET M918T mutant) was “inhibited by SW-01 in a concentration dependent fashion”. For the same compound, the cell morphology (TT cells [9]) was “exhibited induced morphological changes”.
